Laboratory results as given in article PMC5943252, “Contrasting roles for actin in the cellular uptake of cell penetrating peptide conjugates” (Scientific Reports, 2018).

Tests used:
Format in all cases: cell-based
A431 cells [1] = assay: Flow cytometry of cellular uptake of EGFP-R8 in the presence of actin inhibitors; details: for Normalised Fluoresence Intensity (EGFP-R8): mean of geometric means, three independent experiments
Experimental: A431 cells were seeded onto 12-well plates and cultured for 24 hr to be ~80% confluent on the day of experiment. Cells were washed twice with PBS and then incubated with diluent control (DMSO/dH2O) or actin inhibitors as previously described. They were then loaded with serum-free DMEM containing either 2 µM EGFP-R8, 5 µg/ml TF-647 or 0.1 mg/ml Dex-647 in the presence or absence of actin inhibitors for times stipulated in the figure legends. The plates were then placed on ice to prevent further uptake and washed 3x with either ice-cold PBS or 0.5 mg/ml heparin in PBS. To remove the plasma membrane bound TF, cells were washed 3x with ice-cold PBS followed by an incubation for 1 min in ice-cold acid wash (0.2 M acetic acid, 0.2 M NaCl, pH 2.0)[33]. All cells were then washed twice with PBS at room temperature before trypsinisation at 37 °C for 5 min before placing the detached cells in centrifuge tubes and centrifuging at 4 °C for 3 min at 800 × g. The obtained cell suspension was washed 3x with ice-cold PBS and finally resuspended in 300 µl ice-cold PBS for measurement of cell-associated fluorescence (cell gate 50,000 cells) by flow cytometry on a BD FACSVerse utilising a 488 laser and 527/32 filter for EGFP analysis and a 633 nm laser and 660/10 filter for Alexa 647. Cells were gated using FSC-A/SSC-A to isolate single cell populations and analysed using FlowJo.
Flow cytometry measurements represent the mean fluorescence from three independent experiments performed in duplicate, where each individual data point was the geometric mean. A two-tailed unpaired Students t-test was used to test for differences within experiments. Significant differences were classed as having a P value of < 0.05.

A431 cells [2] = assay: Live cell confocal microscopy of uptake of endocytic probes and R8 conjugates, with or without actin inhibitors
Experimental: HeLa or A431 cells were seeded on 35 mm MatTek dishes (Ashland, US) at respective densities of 5 × 10^5 cells/dish and 1.0 × 10^6 cells/dish and maintained in 2.5 mL D-MEM containing 10%, 100 IU/mL penicillin and 100 µg/mL streptomycin. Cells were then allowed to adhere for 24 hr at 37 °C/5% CO2 to reach a confluence of ~80%. On the day of experimentation, they were washed with PBS and then incubated with 100 µl serum-free D-MEM (thus reducing well described serum binding effects[32]) containing either 2 µM CPP conjugate (R8-Alexa488 or EGFP-R8), 5 µg/ml transferrin-Alexa 647 (TF-647) or 0.1 mg/ml dextran (10 kDa)-Alexa 647 (Dex-647). The cells were then incubated for 1 hr (or 30 min for TF-647) at 37 °C/5% CO2 before washing 3x with PBS (TF-647 or Dex-647) or PBS 0.5 mg/mL heparin (R8-conjugates). They were then washed once with PBS, prior to the addition of 2 mL of imaging medium (phenol red free RPMI, 20 mM HEPES pH 7.4) and analysis by live cell confocal microscopy.
Cells were seeded on MatTek dishes as previously described and were washed with PBS before preincubation at 37 °C with diluent control (DMSO) or actin inhibitors: 10 µM Cyt D for 15 min; 0.1–1 µM Lat B for 30 min; 0.2–4 µM JAS for 45 min; 50–100 µM Y27632 for 4 hr in serum-free D-MEM at 37 °C/5% CO2. Endocytic probes (TF-647, Dex-647) or R8-conjugates were then incubated with the cells in the absence (control) or presence of the inhibitors and further incubated at 37 °C/5% CO2 for times specified in figure legends prior to analysis by confocal microscopy. For pulse chase experiments, A431 cells were incubated with 0.1 mg/ml Dex-647 for 2 hr (pulse) followed by washing and a further 4 hr (chase) in fresh complete growth medium. EGFP-R8 (2 µM) was then added for 1 hr in the absence or presence of 10 µM Cyt D. EGFP-R8 and Dex-647 subcellular distribution was then analysed in live cells using confocal microscopy. For low temperature experiments, cells were preincubated with Cyt D as above and then placed on ice for 2 min prior to addition of ice cold EGFP-R8. The cells were then maintained under these conditions for 1 hr prior to analysis by confocal microscopy.
Analysis was performed on a Leica SP5 confocal laser scanning microscope, equipped with laser lines: 405 Blue Diode (Excitation wavelength 405 nm for Hoechst 33342) Argon (Excitation wavelength 488 nm for Alexa 488 or EGFP), Helium Neon Laser 1 (Excitation wavelength 543 nm for Tetramethyl-Rhodamine Phalloidin (Rh-P)) and Laser 2 (Excitation wavelength 633 nm for Alexa 647 conjugates). All images presented in this study were obtained using a HCX PL APO 63x 1.4 NA oil immersion objective with Leica Type F immersion oil. Parameters “Gain” and “Off-set” of the individual photomultiplier tubes were adjusted between experiments in order to obtain optimal image acquisition avoiding saturation. For multi-channel image acquisition, the channels were scanned in a sequential recording mode to avoid spectral cross-talk caused by overlapping excitation and/or emission spectra of fluorophores. Acquisition mode “XYZ” and image resolutions (pixels/image) of 512 × 512 or 1024 × 1024 were selected and pinhole size was set to 1 Airy Unit. Depending on acquisition requirements the scan speed was set as either 400 or 700 Hz and for single section images, the same optical section was scanned 3x to generate a line average image. Captured images were then analysed using ImageJ. […]

[3] = tested on: actin architecture in A431 cells; assay: Actin cytoskeleton visualisation (Rh-P staining, confocal microscopy); details: A431 cells, Rh-P staining; for effect on actin cytoskeleton: 30 min
Experimental: Analysis was performed on a Leica SP5 confocal laser scanning microscope, equipped with laser lines: 405 Blue Diode (Excitation wavelength 405 nm for Hoechst 33342) Argon (Excitation wavelength 488 nm for Alexa 488 or EGFP), Helium Neon Laser 1 (Excitation wavelength 543 nm for Tetramethyl-Rhodamine Phalloidin (Rh-P)) and Laser 2 (Excitation wavelength 633 nm for Alexa 647 conjugates). All images presented in this study were obtained using a HCX PL APO 63x 1.4 NA oil immersion objective with Leica Type F immersion oil. Parameters “Gain” and “Off-set” of the individual photomultiplier tubes were adjusted between experiments in order to obtain optimal image acquisition avoiding saturation. For multi-channel image acquisition, the channels were scanned in a sequential recording mode to avoid spectral cross-talk caused by overlapping excitation and/or emission spectra of fluorophores. Acquisition mode “XYZ” and image resolutions (pixels/image) of 512 × 512 or 1024 × 1024 were selected and pinhole size was set to 1 Airy Unit. Depending on acquisition requirements the scan speed was set as either 400 or 700 Hz and for single section images, the same optical section was scanned 3x to generate a line average image. Captured images were then analysed using ImageJ. In some cases (live cell imaging) the same cells were also imaged using […] microscopy (DIC).
A recently described method was utilised giving information on actin architecture at different regions of the cells termed basal and cell body and apex (CBA). For actin staining, HeLa (0.5 × 10^6 cells/well) or A431 (1.0 × 10^6 cells/well) cells in 2.5 mL D-MEM containing 10% FBS were seeded on round borosilicate No.1.5 cover slips in 6 –well plates and allowed to adhere for 24 hr at 37 °C/5% CO2, to reach a confluence of ~80%. The cells were then treated with actin disrupters as described above, washed 3x with PBS and fixed for 15 min at room temperature with 3% PFA in PBS. Cells were then washed 3x with PBS and permeabilised with 0.2% Triton X-100 in PBS at room temperature for 5 min, washed 3x with PBS and stained for cell nuclei with 1.0 µg/ml Hoechst 33342 in PBS and for polymerised actin with 1.0 µg/ml Rh-P in PBS for 15 min at room temperature. The cells were finally washed 3x with PBS and once with distilled water, coverslips were mounted in DAKO mounting medium on glass microscope slides and imaged by confocal microscopy.

[4] = 0.5 µM Lat B, 30 min preincubation, then 2 µM EGFP-R8 for 1 hr with Lat B

| Structure (SMILES) | Normalised Fluoresence Intensity (EGFP-R8) (A431 cells [1]; 4 µM JAS, 45 min preincubation, then 2 µM EGFP-R8 for 1 hr with JAS) | fold increase in fluorescence (EGFP-R8 uptake) (A431 cells [1]; 4 µM JAS, 45 min preincubation, then 2 µM EGFP-R8 for 1 hr with JAS, vs diluent control (0.4% v/v DMSO), P = 0.0025) | effect on EGFP-R8 uptake (A431 cells [2]; 2–4 µM JAS, 45 min preincubation, then 2 µM EGFP-R8 for 1 hr with JAS) | effect on actin organisation ([3]; 0.2 µM JAS, 45 min, basal and CBA regions) | effect on actin organisation ([3]; 2 µM JAS, 45 min) | effect on actin organisation (actin staining) ([3]; 4 µM JAS, 45 min) | fold increase in uptake (EGFP-R8) (A431 cells [1]; 0.5 µM Lat B, 30 min preincubation, then 2 µM EGFP-R8 for 1 hr with Lat B, heparin wash, vs diluent control, P = 0.0045) | Normalised Fluoresence Intensity (EGFP-R8) (A431 cells [1]; [4]) | effect on cell associated EGFP-R8 fluorescence (A431 cells [2]; [4]) | effect on actin cytoskeleton ([3]; 0.1 μM Lat B, basal and CBA sections) | effect on actin cytoskeleton ([3]; 0.5 μM Lat B) | effect on actin cytoskeleton ([3]; 1 μM Lat B) |
| --- | --- | --- | --- | --- | --- | --- | --- | --- | --- | --- | --- | --- |
| C/C1=C\[C@H](C)C[C@H](C)OC(=O)C[C@H](c2ccc(O)cc2)NC(=O)[C@@H](Cc2c(Br)[nH]c3ccccc23)N(C)C(=O)[C@H](C)NC(=O)[C@@H](C)C1 [JAS, Jasplakinolide] | 4.00 | four | dramatic increase | actin staining was more prominent on the cell periphery | actin staining appeared in large clumps | completely lost from all cells |  |  |  |  |  |  |
| C/C1=C/C(=O)O[C@@H]2C[C@@H](CC[C@H](C)/C=C\CC1)O[C@@](O)([C@@H]1CSC(=O)N1)C2 [Lat B, Latrunculin B] |  |  |  |  |  |  | 6.23 fold | 6.23 | much higher fluorescence compared to controls | formation of small actin aggregates | these aggregates were extremely prominent | major disruption of the actin organisation |
